# Numbered stars: 1 amine (or outer) side, 2 acyl side, 3 side chain; on linkers, the order of the positions; unused ones are H or OH. Bridge positions count the residues as written; N and C are the ends. Square brackets hold non-standard residues; d marks the D form. Peptide text beside a SMILES is read from it. Trp(2-yl) = O=C([C@H](Cc1c([*:3])[nH]c2ccccc12)N[*:1])[*:2]; X4 = O=C([C@H](Cc1c([*:3])[nH]c2ccc(O)cc12)N[*:1])[*:2]; Ile(4R-OH,5-OH) = C[C@H]([C@H](N)C(=O)O)[C@@H](O)CO; X5 = C[C@@H](S[*:3])[C@H](N[*:1])C(=O)[*:2]; X2 = CC[C@H](C)[C@@H](CNNC(=O)[*:2])N[*:1]; X3 = C[C@H](S[*:3])[C@H](N[*:1])C(=O)[*:2]; X1 = CS[C@H](C)[C@H](N[*:1])C(=O)[*:2]; Nva(3-Et) = CCC(CC)[C@H](N)C(=O)O; αMeI = CC[C@H](C)[C@](C)(N)C(=O)O; Hyp = O=C(O)[C@@H]1C[C@@H](O)CN1; Pen = CC(C)(S)[C@H](N)C(=O)O; azaGly = NNC(=O)O
# What was measured:
# [1] = Cytotoxicity against chinese hamster CHO cells assessed as reduction in cell viability incubated for 72 hrs by MTT assay; type: toxicity, cell-based, Cricetulus griseus
# [2] = Cytotoxicity against human HEK293 cells assessed as reduction in cell viability incubated for 72 hrs by MTT assay; type: toxicity, cell-based
# HeLa = experiment: Cytotoxicity against human HeLa cells assessed as reduction in cell viability incubated for 72 hrs by MTT assay; type: functional, cell-based
# HepG2 = experiment: Cytotoxicity against human HepG2 cells assessed as reduction in cell viability incubated for 72 hrs by MTT assay; type: functional, cell-based; conditions: HepG2, 72 h
# [3] = Inhibition of RNA polymerase 2 in human HeLa cells nuclear extract using DNA template as substrate incubated for 60 mins by TRA; type: subcellular, Nucleus
SMILES,IC50 at 72 h [1] [nM],IC50 at 72 h [2] [nM],IC50 (HeLa) [nM],IC50 (HepG2) [nM],IC50 [3] [nM]
CC[C@H](C)[C@@H]1NC(=O)CNC(=O)[C@@H]2Cc3c([nH]c4cc(O)ccc34)[S+]([O-])C[C@H](NC(=O)CNC1=O)C(=O)N[C@@H](CC(N)=O)C(=O)N1C[C@H](O)C[C@H]1C(=O)N[C@@H]([C@@H](C)[C@@H](O)CO)C(=O)N2 (stereo partly drawn),1000,1000,1000,560,1
C[C@H]([C@@H]1NC(=O)[C@@H]2C[C@@H](O)CN2C(=O)[C@H](CC(N)=O)NC(=O)[C@@H]2CSc3[nH]c4ccccc4c3C[C@H](NC1=O)C(=O)NCC(=O)N[C@H](C1CCCC1)C(=O)NCC(=O)N2)[C@@H](O)CO,6900,,,,47
"CC[C@H](C)[C@@H]1NC(=O)CNC(=O)[C@@H]2Cc3c([nH]c4ccccc34)SC[C@H](NC(=O)CNC1=O)C(=O)N[C@@H](CC(N)=O)C(=O)N1C[C@H](O)C[C@H]1C(=O)N[C@@H]([C@@H](C)[C@@H](O)CO)C(=O)N2 (cyclo(CN[Hyp][Ile(4R-OH,5-OH)][Trp(2-yl)]GIG); thioether 1-5)",1300,,,,9.5
"CO[C@H](C)[C@@H]1NC(=O)CNC(=O)[C@@H]2Cc3c([nH]c4ccccc34)SC[C@H](NC(=O)CNC1=O)C(=O)N[C@@H](CC(N)=O)C(=O)N1C[C@H](O)C[C@H]1C(=O)N[C@@H]([C@@H](C)[C@@H](O)CO)C(=O)N2 (cyclo(CN[Hyp][Ile(4R-OH,5-OH)][Trp(2-yl)]GT(Me)G); thioether 1-5)",> 20000,,,,42
"CCC(CC)[C@@H]1NC(=O)CNC(=O)[C@@H]2Cc3c([nH]c4ccccc34)SC[C@H](NC(=O)CNC1=O)C(=O)N[C@@H](CC(N)=O)C(=O)N1C[C@H](O)C[C@H]1C(=O)N[C@@H]([C@@H](C)[C@@H](O)CO)C(=O)N2 (cyclo(CN[Hyp][Ile(4R-OH,5-OH)][Trp(2-yl)]G[Nva(3-Et)]G); thioether 1-5)",780,370,,,8.5
"CS[C@H](C)[C@@H]1NC(=O)CNC(=O)[C@@H]2Cc3c([nH]c4ccccc34)SC[C@H](NC(=O)CNC1=O)C(=O)N[C@@H](CC(N)=O)C(=O)N1C[C@H](O)C[C@H]1C(=O)N[C@@H]([C@@H](C)[C@@H](O)CO)C(=O)N2 (cyclo(CN[Hyp][Ile(4R-OH,5-OH)][Trp(2-yl)]G[X1]G); thioether 1-5)",5600,1500,4000,> 10000,8.6
"CC[C@H](C)[C@H]1CNNC(=O)N[C@H]2CSc3[nH]c4ccccc4c3C[C@H](NC(=O)[C@H]([C@@H](C)[C@@H](O)CO)NC(=O)[C@@H]3C[C@@H](O)CN3C(=O)[C@H](CC(N)=O)NC2=O)C(=O)NCC(=O)N1 (cyclo(CN[Hyp][Ile(4R-OH,5-OH)][Trp(2-yl)]G[X2]); thioether 1-5)",380,460,830,2700,4.7
"CC[C@H](C)[C@]1(C)NC(=O)NNC(=O)[C@@H]2Cc3c([nH]c4ccccc34)SC[C@H](NC(=O)CNC1=O)C(=O)N[C@@H](CC(N)=O)C(=O)N1C[C@H](O)C[C@H]1C(=O)N[C@@H]([C@@H](C)[C@@H](O)CO)C(=O)N2 (cyclo(CN[Hyp][Ile(4R-OH,5-OH)][Trp(2-yl)][azaGly][αMeI]G); thioether 1-5)",2400,450,,,5.3
"CCC(CC)[C@@H]1NC(=O)CNC(=O)[C@@H]2Cc3c([nH]c4ccc(O)cc34)SC[C@H](NC(=O)CNC1=O)C(=O)N[C@@H](CC(N)=O)C(=O)N1C[C@H](O)C[C@H]1C(=O)N[C@@H]([C@@H](C)[C@@H](O)CO)C(=O)N2 (cyclo(CN[Hyp][Ile(4R-OH,5-OH)][X4]G[Nva(3-Et)]G); thioether 1-5)",2500,320,,,17.8
"CC[C@H](C)[C@@H]1NC(=O)CNC(=O)[C@@H]2Cc3c([nH]c4ccccc34)SC(C)(C)[C@H](NC(=O)CNC1=O)C(=O)N[C@@H](CC(N)=O)C(=O)N1C[C@H](O)C[C@H]1C(=O)N[C@@H]([C@@H](C)[C@@H](O)CO)C(=O)N2 (cyclo(GIG[Pen]N[Hyp][Ile(4R-OH,5-OH)][Trp(2-yl)]); thioether 4-8)",9300,,,,17.7
"CC[C@H](C)[C@@H]1NC(=O)CNC(=O)[C@@H]2Cc3c([nH]c4ccccc34)S[C@@H](C)[C@H](NC(=O)CNC1=O)C(=O)N[C@@H](CC(N)=O)C(=O)N1C[C@H](O)C[C@H]1C(=O)N[C@@H]([C@@H](C)[C@@H](O)CO)C(=O)N2 (cyclo(GIG[X3]N[Hyp][Ile(4R-OH,5-OH)][Trp(2-yl)]); thioether 4-8)",1300,510,,,10
"CC[C@H](C)[C@@H]1NC(=O)CNC(=O)[C@@H]2Cc3c([nH]c4ccc(O)cc34)S[C@@H](C)[C@H](NC(=O)CNC1=O)C(=O)N[C@@H](CC(N)=O)C(=O)N1C[C@H](O)C[C@H]1C(=O)N[C@@H]([C@@H](C)[C@@H](O)CO)C(=O)N2 (cyclo(GIG[X3]N[Hyp][Ile(4R-OH,5-OH)][X4]); thioether 4-8)",6900,880,,,14.7
"CC[C@H](C)[C@@H]1NC(=O)CNC(=O)[C@@H]2Cc3c([nH]c4ccccc34)S[C@H](C)[C@H](NC(=O)CNC1=O)C(=O)N[C@@H](CC(N)=O)C(=O)N1C[C@H](O)C[C@H]1C(=O)N[C@@H]([C@@H](C)[C@@H](O)CO)C(=O)N2 (cyclo(GIG[X5]N[Hyp][Ile(4R-OH,5-OH)][Trp(2-yl)]); thioether 4-8)",> 20000,,,,> 128
"CCC(CC)[C@@H]1NC(=O)CNC(=O)[C@@H]2Cc3c([nH]c4ccccc34)S[C@@H](C)[C@H](NC(=O)CNC1=O)C(=O)N[C@@H](CC(N)=O)C(=O)N1C[C@H](O)C[C@H]1C(=O)N[C@@H]([C@@H](C)[C@@H](O)CO)C(=O)N2 (cyclo(G[Nva(3-Et)]G[X3]N[Hyp][Ile(4R-OH,5-OH)][Trp(2-yl)]); thioether 4-8)",610,200,600,110,9.5
"CCC(CC)[C@@H]1NC(=O)CNC(=O)[C@@H]2Cc3c([nH]c4ccc(O)cc34)S[C@@H](C)[C@H](NC(=O)CNC1=O)C(=O)N[C@@H](CC(N)=O)C(=O)N1C[C@H](O)C[C@H]1C(=O)N[C@@H]([C@@H](C)[C@@H](O)CO)C(=O)N2 (cyclo(G[Nva(3-Et)]G[X3]N[Hyp][Ile(4R-OH,5-OH)][X4]); thioether 4-8)",2400,510,,,13.8
